Laboratory results: EP4775570A1, “CYP11A1 INHIBITOR, PREPARATION METHOD THEREFOR AND USE THEREOF” (Shenzhen Zhongge Biological Technology Co., Ltd., priority 2023, dated 2025)

System: testosterone, progesterone, corticosterone
Experiment: LC-MS detection of testosterone, progesterone and corticosterone in mouse tumors and adrenal glands
Type: in vivo
Details: VCaP model; for secretion of testosterone, progesterone and corticosterone in tumors and adrenal glands (in words): mouse tumors and adrenal glands
Description: • Mouse tumors were homogenized using PBS in a 1:5 ratio (tumor weight (g): PBS volume (mL), w/v); • Mouse adrenal glands were homogenized using PBS in a 1:10 ratio (adrenal gland weight (g): PBS volume (mL), w/v); • Standard sample: testosterone (LGC, C17322500), progesterone (MCE, HY-N0437), adrenal ketone (MCE, HY-B1618), and standard solution of test substance.
Experiment procedures: since the three markers, i.e., testosterone, progesterone, and adrenal ketone, are all endogenous substances and present in the blank matrix as well, PBS was alternatively used as matrix in the production of the standard curve.
Testosterone: multiple reaction monitoring (MRM) method was used for detecting the concentrations of testosterone in mouse tumors and adrenal glands. Mass spectrum: AB Sciex Triple Quad 6500+; liquid chromatography: Shimadzu 40A, column: Waters XBridge BEH C18 2.5 µm 2.1*50mm, testosterone ion pair: 289.4/97.2. Both tumor and adrenal tissues were treated with methanol as precipitant and tolbutamide as internal standard for sample pretreatment, with linear range in 50-50,000pg/mL.
Progesterone and corticosterone: multi-reaction detection method (MRM) was used for detecting the concentrations of progesterone and corticosterone in mouse tumors and adrenal glands. Mass spectrum: AB Sciex Triple Quad 6500+; liquid chromatography: Shimadzu 40A, column: Waters XSelect HSS T3 2.5 µm 2.1*50mm, progesterone ion pair: 315.4/97.2, adrenone ion pair: 347.4/121.3. For tumor tissues, acetonitrile was used as precipitant and propranolol diclofenac as internal standard for sample pretreatment, with linear ranges in 0.05-10 ng/mL of progesterone and 0.10-20 ng/mL of corticosterone. For adrenal tissues, methanol was used as precipitant and propranolol diclofenac as internal standard for sample pretreatment, with linear ranges in 5-2,500 ng/mL of progesterone and 5-2,500 ng/mL of corticosterone.

Compound	concentration of progesterone in the adrenal glands, relative to ODM-208 (adrenal glands, fraction of the ODM-208 group)	secretion of testosterone, progesterone and corticosterone in tumors and adrenal glands (in words)	concentration of testosterone in the tumors, relative to the ODM-208 group (tumors, fraction of the ODM-208 group)	secretion of progesterone in the adrenal glands (in words) (adrenal glands of mice, vs control group)
COc1cc(CN2Cc3ccccc3C2)ccc1CCC1CCN(S(C)(=O)=O)CC1 [compound 53]	1/4	significantly inhibited	1/8	–
Cn1c(CN2Cc3ccccc3C2)c(F)cc(CCC2CCN(S(C)(=O)=O)CC2)c1=O [compound 72]	–	significantly inhibited	–	significant inhibitory effect
